Measured values reported in US8772480B2, “Inhibitors of PI3 kinase and/or mTOR” (priority 2009, dated 2014).

Key:
PI3Kα = PI3Kα (Homo sapiens (Human), UniProt P42336); settings: read-out: PI3Kα AlphaScreen ® Ki
[1] = tested on: phosphorylation of Akt at Serine 473 in U87 MG cells; test: cells; settings: Homo sapiens, U-87 MG, 2 h, read-out: U87Cell IC50, pAkt (Ser 473), U87 MG cells, two hours with compound

Chain of PI3Kα (P42336 whole entry): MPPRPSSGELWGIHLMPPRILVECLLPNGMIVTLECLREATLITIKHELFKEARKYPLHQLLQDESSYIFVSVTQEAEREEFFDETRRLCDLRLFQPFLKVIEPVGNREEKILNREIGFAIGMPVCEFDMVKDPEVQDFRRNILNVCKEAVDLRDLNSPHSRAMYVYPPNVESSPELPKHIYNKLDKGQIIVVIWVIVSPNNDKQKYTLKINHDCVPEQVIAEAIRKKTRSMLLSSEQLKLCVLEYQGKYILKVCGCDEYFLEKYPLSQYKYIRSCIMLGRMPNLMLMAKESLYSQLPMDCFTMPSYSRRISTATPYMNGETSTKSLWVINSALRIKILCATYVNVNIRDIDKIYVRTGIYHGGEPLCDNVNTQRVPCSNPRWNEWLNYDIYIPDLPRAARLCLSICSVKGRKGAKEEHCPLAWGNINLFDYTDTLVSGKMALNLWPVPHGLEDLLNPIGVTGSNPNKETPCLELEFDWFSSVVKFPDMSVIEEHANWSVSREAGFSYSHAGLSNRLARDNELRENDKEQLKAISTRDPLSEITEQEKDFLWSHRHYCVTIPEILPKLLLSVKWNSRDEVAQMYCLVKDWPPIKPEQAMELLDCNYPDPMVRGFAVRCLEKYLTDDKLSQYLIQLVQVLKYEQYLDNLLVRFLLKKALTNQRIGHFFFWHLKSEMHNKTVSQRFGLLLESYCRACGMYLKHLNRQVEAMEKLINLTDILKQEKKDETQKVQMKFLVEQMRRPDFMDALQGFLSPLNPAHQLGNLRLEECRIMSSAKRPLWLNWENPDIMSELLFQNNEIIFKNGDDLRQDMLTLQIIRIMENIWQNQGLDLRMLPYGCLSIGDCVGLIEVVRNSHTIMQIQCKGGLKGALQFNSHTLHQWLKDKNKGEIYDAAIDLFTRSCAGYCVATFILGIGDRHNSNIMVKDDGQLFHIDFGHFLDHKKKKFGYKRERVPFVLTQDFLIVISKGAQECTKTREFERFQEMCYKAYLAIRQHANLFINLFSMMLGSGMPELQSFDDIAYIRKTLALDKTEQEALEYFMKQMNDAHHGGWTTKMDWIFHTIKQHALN
Chain of PI3Kα (P27986 whole entry partner): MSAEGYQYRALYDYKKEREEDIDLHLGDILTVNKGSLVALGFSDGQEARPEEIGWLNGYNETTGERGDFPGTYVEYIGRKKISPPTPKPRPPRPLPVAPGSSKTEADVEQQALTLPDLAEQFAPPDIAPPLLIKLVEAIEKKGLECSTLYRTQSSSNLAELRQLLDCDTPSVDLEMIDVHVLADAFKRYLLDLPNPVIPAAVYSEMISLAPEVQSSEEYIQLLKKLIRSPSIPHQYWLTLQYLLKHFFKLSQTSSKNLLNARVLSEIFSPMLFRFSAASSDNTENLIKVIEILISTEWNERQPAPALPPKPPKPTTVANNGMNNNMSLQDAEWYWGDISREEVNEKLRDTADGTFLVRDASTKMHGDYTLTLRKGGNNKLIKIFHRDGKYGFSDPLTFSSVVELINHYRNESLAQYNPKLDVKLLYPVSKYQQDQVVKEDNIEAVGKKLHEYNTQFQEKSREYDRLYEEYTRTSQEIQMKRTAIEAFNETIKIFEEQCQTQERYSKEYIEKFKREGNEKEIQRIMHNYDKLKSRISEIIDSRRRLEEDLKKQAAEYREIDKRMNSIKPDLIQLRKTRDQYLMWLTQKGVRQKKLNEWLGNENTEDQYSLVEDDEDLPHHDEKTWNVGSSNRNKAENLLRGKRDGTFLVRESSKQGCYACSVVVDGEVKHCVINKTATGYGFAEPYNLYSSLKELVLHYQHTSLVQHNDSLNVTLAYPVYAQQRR

| Structure (SMILES) | Ki (PI3Kα) | IC50 [1] |
| --- | --- | --- |
| Cc1nc(N)nc(-c2cc(CN3CCN(S(C)(=O)=O)CC3)cnc2Nc2cn[nH]c2)n1 [Example 243, 4-(2-(1H-Pyrazol-4-Ylamino)-5-((4-(Methylsulfonyl)Piperazin-1-yl)Methyl)Pyridin-3-yl)-6-Methyl-1,3,5-Triazin-2-Amine] | 163 nM | 1520 nM |
| Cc1nc(N)nc(-c2cc([C@@H](C)N3CCN(S(C)(=O)=O)CC3)cnc2Nc2cc(F)c3cccnc3c2)n1 [Example 287, (R)—N-(3-(4-Amino-6-Methyl-1,3,5-Triazin-2-yl)-5-(1-(4-(Methylsulfonyl)Piperazin-1-yl)Ethyl)Pyridin-2-yl)-5-Fluoroquinolin-7-Amine] | 20 nM | 204 nM |
| COc1ccc(Nc2ncc(Nc3ccccc3)cc2-c2nc(C)nc3[nH]cnc23)cn1 [Example 92, N2-(6-methoxypyridin-3-yl)-3-(2-methyl-9H-purin-6-yl)-N-5-phenylpyridine-2,5-diamine] | 33 nM | 916 nM |
| Cc1nc(N)nc(-c2cc(CN3CCN(C(=O)N(C)C)CC3)cnc2Nc2cnc(O)c(F)c2)n1 [Example 160, 4-((5-(4-Amino-6-Methyl-1,3,5-Triazin-2-yl)-6-(5-Fluoro-6-Hydroxypyridin-3-Ylamino)Pyridin-3-yl)Methyl)-N,N-Dimethylpiperazine-1-Carboxamide] | 505 nM | 3170 nM |
| Cc1nc(N)nc(-c2cc(C(C)N3CCN(C(=O)N(C)C)CC3)cnc2Nc2ccc3scnc3c2)n1 (centres unmarked) [Example 289, 4-(1-(5-(4-Amino-6-Methyl-1,3,5-Triazin-2-yl)-6-(Benzo[D]Thiazol-5-Ylamino)Pyridin-3-yl)Ethyl)-N,N-Dimethylpiperazine-1-Carboxamide] | 60 nM | 111 nM |
| COc1ccc(Nc2ncc(CNc3ccccc3)cc2-c2nc(C)nc3[nH]cnc23)cn1 [Example 83, N-(6-methoxypyridin-3-yl)-3-(2-methyl-9H-purin-6-yl)-5-((phenylamino)methyl)pyridin-2-amine] | 45 nM | 700 nM |
| COC(=O)N1CCN(Cc2cnc(Nc3ccc(OC)nc3)c(-c3nc(C)nc4[nH]cnc34)c2)CC1 [Example 86, Methyl 4-((6-(6-Methoxypyridin-3-Ylamino)-5-(2-Methyl-9H-Purin-6-yl)Pyridin-3-yl)Methyl)Piperazine-1-Carboxylate] | 18 nM | 63 nM |
| COc1ccc(Nc2nc(N3CCCC3)ncc2-c2nc(C)nc(N)n2)cn1 [Example 122, 4-(4-(6-methoxypyridin-3-ylamino)-2-(pyrrolidin-1-yl)pyrimidin-5-yl)-6-methyl-1,3,5-triazin-2-amine] | 51 nM | 725 nM |
| COc1ccc(Nc2ncc(C(C)=O)nc2-c2cc(N)nc(C)n2)cn1 [Example 285, 1-(6-(6-Amino-2-Methylpyrimidin-4-yl)-5-(6-Methoxypyridin-3-Ylamino)Pyrazin-2-yl)Ethanone] | 103 nM | > 10000 nM |
| COc1ccc(Nc2ncc(CNCc3cccnc3)cc2-c2nc(C)nc3[nH]cnc23)cn1 [Example 138, N-(6-methoxypyridin-3-yl)-3-(2-methyl-9H-purin-6-yl)-5-((pyridin-3-ylmethylamino)methyl)pyridin-2-amine] | 48 nM | 172 nM |
| COc1ccc(Nc2ccncc2-c2nc(C)nc3[nH]cnc23)cn1 [Example 111, 6-methoxy-N-(3-(2-methyl-9H-purin-6-yl)pyridin-4-yl)pyridin-3-amine] | 252 nM | 1170 nM |
| COc1ncc(Nc2ncc([C@@H](C)N3CCN(S(C)(=O)=O)CC3)cc2-c2nc(C)nc3[nH]cnc23)cc1F [Example 297, (R)—N-(5-Fluoro-6-Methoxypyridin-3-yl)-3-(2-Methyl-9H-Purin-6-yl)-5-(1-(4-(Methylsulfonyl)Piperazin-1-yl)Ethyl)Pyridin-2-Amine] | 1 nM | 9 nM |
| COc1ncc(Nc2ncc(CN3CCN(S(C)(=O)=O)CC3C(F)(F)F)cc2-c2nc(C)nc(N)n2)cc1F (centres unmarked) [Example 313, 4-(2-(5-Fluoro-6-Methoxypyridin-3-Ylamino)-5-((4-(Methylsulfonyl)-2-(Trifluoromethyl)Piperazin-1-yl)Methyl)Pyridin-3-yl)-6-Methyl-1,3,5-Triazin-2-Amine] | 7 nM | > 10000 nM |
| Cc1nc(N)nc(-c2cc(CN3CCN(S(C)(=O)=O)CC3)cnc2Nc2cccc3[nH]ncc23)n1 [Example 36, N-(3-(4-amino-6-methyl-1,3,5-triazin-2-yl)-5-((4-(methylsulfonyl)piperazin-1-yl)methyl)pyridin-2-yl)-1H-indazol-4-amine] | 4 nM | 22 nM |
| COc1ccc(Nc2ncc([C@H](C)N3CCN(S(C)(=O)=O)CC3)cc2-c2nc(C)nc(N)n2)cn1 [Example 145, (S)-4-(2-(6-Methoxypyridin-3-Ylamino)-5-(1-(4-(Methylsulfonyl)Piperazin-1-yl)Ethyl)Pyridin-3-yl)-6-Methyl-1,3,5-Triazin-2-Amine] | 8 nM | 8 nM |
| COc1ncc(Nc2ncc(CN3CCOCC3)cc2-c2nc(C)nc(N)n2)cc1NS(C)(=O)=O [Example 337, N-(5-(3-(4-Amino-6-Methyl-1,3,5-Triazin-2-yl)-5-(Morpholinomethyl)Pyridin-2-Ylamino)-2-Methoxypyridin-3-yl)Methanesulfonamide] | 98 nM | 21 nM |
| COc1ccc(Nc2nc(N3CCCCC3)ncc2-c2nc(C)nc(N)n2)cn1 [Example 123, 4-(4-(6-methoxypyridin-3-ylamino)-2-(piperidin-1-yl)pyrimidin-5-yl)-6-methyl-1,3,5-triazin-2-amine] | 102 nM | > 10000 nM |
| Cc1nc(N)nc(-c2cccnc2Nc2ccc(F)c(F)c2)n1 [Example 248] | 442 nM | 2300 nM |
| COc1ccc(Nc2ncc(C(C)N3CCN(S(C)(=O)=O)CC3)cc2-c2nc(C)nc3[nH]cnc23)cn1 (centres unmarked) [Example 140, N-(6-methoxypyridin-3-yl)-3-(2-methyl-9H-purin-6-yl)-5-(1-(4-(methylsulfonyl)piperazin-1-yl)ethyl)pyridin-2-amine] | 6 nM | 34 nM |
| COc1ccc(Nc2ncc(CN3CCN(S(=O)(=O)N(C)C)CC3)cc2-c2nc(C)nc3[nH]cnc23)cn1 [Example 88, 4-((6-(6-Methoxypyridin-3-Ylamino)-5-(2-Methyl-9H-Purin-6-yl)Pyridin-3-yl)Methyl)-N,N-Dimethylpiperazine-1-Sulfonamide] | 7 nM | 45 nM |

More lines, now with the values ahead:

| Ki (PI3Kα) | IC50 [1] | Structure (SMILES) |
| --- | --- | --- |
| 11 nM | 11 nM | COc1ncc(Nc2ncc(CN3CCN(C(=O)N(C)C)CC3)cc2-c2nc(C)nc(N)n2)cc1F [Example 159, 4-((5-(4-Amino-6-Methyl-1,3,5-Triazin-2-yl)-6-(5-Fluoro-6-Methoxypyridin-3-Ylamino)Pyridin-3-yl)Methyl)-N,N-Dimethylpiperazine-1-Carboxamide] |
| 60 nM | 353 nM | COc1ncc(Nc2ncccc2-c2nc(C)nc(N)n2)cc1Cl [Example 173, 4-(2-(5-Chloro-6-Methoxypyridin-3-Ylamino)Pyridin-3-yl)-6-Methyl-1,3,5-Triazin-2-Amine] |
| 14 nM | 192 nM | Cc1nc(N)nc(-c2cc(-c3cnn(C)c3)cnc2Nc2cncc(F)c2)n1 [Example 258, 4-(2-(5-Fluoropyridin-3-Ylamino)-5-(1-Methyl-1H-Pyrazol-4-yl)Pyridin-3-yl)-6-Methyl-1,3,5-Triazin-2-Amine] |
| 21 nM | 110 nM | COCCNC(=O)c1cnc(Nc2ccc(OC)nc2)c(-c2nc(C)nc(N)n2)c1 [Example 153, 5-(4-Amino-6-Methyl-1,3,5-Triazin-2-yl)-N-(2-Methoxyethyl)-6-((6-Methoxy-3-Pyridinyl)Amino)-3-Pyridinecarboxamide] |
| 19 nM | 17 nM | COc1cc(Nc2ncc([C@@H](C)N3CCN(S(C)(=O)=O)CC3)cc2-c2nc(C)nc(N)n2)cnc1Cl [Example 341, (R)-4-(2-(6-Chloro-5-Methoxypyridin-3-Ylamino)-5-(1-(4-(Methylsulfonyl)Piperazin-1-yl)Ethyl)Pyridin-3-yl)-6-Methyl-1,3,5-Triazin-2-Amine] |
| 25 nM | 8 nM | COc1cc(Nc2ncc(C(C)(C)O)cc2-c2nc(C)nc(N)n2)cnc1Cl [Example 342, 2-(5-(4-Amino-6-Methyl-1,3,5-Triazin-2-yl)-6-(6-Chloro-5-Methoxypyridin-3-Ylamino)Pyridin-3-yl)Propan-2-ol] |
| 11 nM | 34 nM | COc1ccc(Nc2ncc(C(C)(C)N3CCN(S(C)(=O)=O)CC3)cc2-c2nc(C)nc(N)n2)cn1 [Example 279, 4-(2-(6-Methoxypyridin-3-Ylamino)-5-(2-(4-(Methylsulfonyl)Piperazin-1-yl)Propan-2-yl)Pyridin-3-yl)-6-Methyl-1,3,5-Triazin-2-Amine] |
| 13 nM | 18 nM | COc1ncc(Nc2ncc(C=O)cc2-c2nc(C)nc(N)n2)cc1F [Example 187, 5-(4-Amino-6-Methyl-1,3,5-Triazin-2-yl)-6-(5-Fluoro-6-Methoxypyridin-3-Ylamino)Nicotinaldehyde] |
| 45 nM | 24 nM | COc1ncc(Nc2ncc(C(C)(C)N)cc2-c2nc(C)nc(N)n2)cc1F [Example 278, 4-(5-(2-Aminopropan-2-yl)-2-(5-Fluoro-6-Methoxypyridin-3-Ylamino)Pyridin-3-yl)-6-Methyl-1,3,5-Triazin-2-Amine] |
| 560 nM | 596 nM | COc1ccc(Nc2ncccc2-c2nc(C)nc(N)n2)cc1OC [Example 170, 4-(2-(3,4-Dimethoxyphenylamino)Pyridin-3-yl)-6-Methyl-1,3,5-Triazin-2-Amine] |
| 10 nM | 3 nM | Cc1nc(N)nc(-c2cc(C(C)N3CCOCC3)cnc2Nc2cnc(Cl)c(NS(=O)(=O)N(C)C)c2)n1 (centres unmarked) [Example 370, N-(5-(3-(4-Amino-6-Methyl-1,3,5-Triazin-2-yl)-5-(1-Morpholinoethyl)Pyridin-2-Ylamino)-2-Chloropyridin-3-yl)-N,N-Dimethylaminosulfamide] |
